Literature values in PubChem BioAssay AID1259409 (Chemical Carcinogenesis Research Information System (CCRIS), 2018).

Tested on: rodent chemically induced tumor inhibition, incidence and multiplicity
Experiment: CCRIS tumor inhibitor studies

Structure (SMILES): O=C(OC[C@@H]1O[C@H](OC(=O)c2cc(O)c(O)c(OC(=O)c3cc(O)c(O)c(O)c3)c2)[C@@H](OC(=O)c2cc(O)c(O)c(OC(=O)c3cc(O)c(O)c(O)c3)c2)[C@H](OC(=O)c2cc(O)c(O)c(OC(=O)c3cc(O)c(O)c(O)c3)c2)[C@H]1OC(=O)c1cc(O)c(O)c(OC(=O)c2cc(O)c(O)c(O)c2)c1)c1cc(O)c(O)c(OC(=O)c2cc(O)c(O)c(O)c2)c1
- tumour outcome (control, treated, inhibition, significance) (Carcinogen: 7,12-DIMETHYLBENZ[A]ANTHRACENE, 57-97-6, Dose [Inhibitor]: 0, 17 MG 2/WK FOR 20 WK APPLIED 20 MIN PRIOR TO EACH PROMOTER DOSE (STUDY DURATION: 22 WK), Route [Inhibitor]: DERMAL, Species: (36,?)/(36,?), Strain/Sex: CF-1/FEMALE, Target Tissue: Type of Lesion: SKIN: PAPILLOMA, Dose [Carcinogen]: 25.6 UG IN 0.2 ML ACETONE ONCE, Promoter: 12-O-TETRADECANOYLPHORBOL-13-ACETATE, 16561-29-8): 90%, 65%, 28%, not calculated
- tumour outcome (control, treated, inhibition, significance) (Carcinogen: 7,12-DIMETHYLBENZ[A]ANTHRACENE, 57-97-6, Dose [Inhibitor]: 0, 20 UMOL IN 0.4 ML ACETONE 20 MIN PRIOR TO EACH PROMOTER DOSE (STUDY DURATION: 47 WK), Route [Inhibitor]: DERMAL, Species: MOUSE, Strain/Sex: CF-1/FEMALE, Target Tissue: Type of Lesion: SKIN: CARCINOMA, Dose [Carcinogen]: 100 NMOL IN 0.2 ML ACETONE ONCE): 66%, 0%, 100%, not calculated
- tumour outcome (control, treated, inhibition, significance) (Carcinogen: 7,12-DIMETHYLBENZ[A]ANTHRACENE, 57-97-6, Dose [Inhibitor]: 0, 20 UMOL IN 0.4 ML ACETONE 20 MIN PRIOR TO EACH PROMOTER DOSE (STUDY DURATION: 47 WK), Route [Inhibitor]: DERMAL, Species: MOUSE, Strain/Sex: CF-1/FEMALE, Target Tissue: Type of Lesion: SKIN: PAPILLOMA, Dose [Carcinogen]: 100 NMOL IN 0.2 ML ACETONE ONCE): 94%, 23%, 76%, not calculated
- tumour outcome (control, treated, inhibition, significance) (Carcinogen: 7,12-DIMETHYLBENZ[A]ANTHRACENE, 57-97-6, Dose [Inhibitor]: 0, 34 MG 2/WK FOR 2 WK APPLIED 20 MIN PRIOR TO EACH TPA DOSE (STUDY DURATION: 22 WK), Route [Inhibitor]: DERMAL, Species: MOUSE, Strain/Sex: SENCAR/FEMALE, Target Tissue: Type of Lesion: SKIN: PAPILLOMA, Dose [Carcinogen]: 6.4 UG IN 0.2 ML ACETONE ONCE, Promoter: 12-O-TETRADECANOYLPHORBOL-13-ACETATE, 16561-29-8, MEZEREIN, 34807-41-5, Promoter: 12-O-TETRADECANOYLPHORBOL-13-ACETATE, 16561-29-8, MEZEREIN, 34807-41-5): 90%, 96%, -7%, not calculated
- tumour outcome (control, treated, inhibition, significance) (Carcinogen: 7,12-DIMETHYLBENZ[A]ANTHRACENE, 57-97-6, Dose [Inhibitor]: 0, 34 MG 2/WK FOR 18 WK APPLIED 20 MIN PRIOR TO EACH MEZEREIN DOSE (STUDY DURATION: 22 WK), Route [Inhibitor]: DERMAL, Species: MOUSE, Strain/Sex: SENCAR/FEMALE, Target Tissue: Type of Lesion: SKIN: PAPILLOMA, Dose [Carcinogen]: 6.4 UG IN 0.2 ML ACETONE ONCE, Promoter: 12-O-TETRADECANOYLPHORBOL-13-ACETATE, 16561-29-8, MEZEREIN, 34807-41-5, Promoter: 12-O-TETRADECANOYLPHORBOL-13-ACETATE, 16561-29-8, MEZEREIN, 34807-41-5): 90%, 25%, 72%, not calculated
- tumour outcome (control, treated, inhibition, significance) (Carcinogen: (+/-)-7BETA,8ALPHA-DIHYDROXY-9ALPHA,10ALPHA-EPOXY-7,8,9,10- TETRAHYDROBENZO[A]PYRENE, 58917-67-2, Dose [Inhibitor]: 3000 NMOL IN 0.2 ML ACETONE 1/D FOR 7 D (STUDY DURATION: 18 WK), Route [Inhibitor]: DERMAL, Species: MOUSE, Strain/Sex: SENCAR/FEMALE, Target Tissue: Type of Lesion: SKIN: TUMOR, Dose [Carcinogen]: 200 NMOL IN 0.2 ML ACETONE ONCE 30 MIN POST LAST INHIBITOR DOSE, Promoter: 12-O-TETRADECANOYLPHORBOL-13-ACETATE, 16561-29-8): 75%, 60%, 20%, not significant
- tumour outcome (control, treated, inhibition, significance) (Carcinogen: BENZO[A]PYRENE, 50-32-8, Dose [Inhibitor]: 1% AQUEOUS SOLUTION 3/WK FOR A TOTAL OF 80 APPLICATIONS FOLLOWED BY AT LEAST 365 D OBSERVATION PERIOD (STUDY DURATION: 5, Route [Inhibitor]: DERMAL, Species: MOUSE, Strain/Sex: CD-1/MALE, FEMALE, Target Tissue: Type of Lesion: SKIN: CARCINOMA, SQUAMOUS CELL PAPILLOMA, SEBACEOUS ADENOMA, BASAL CELL TUMOR, KERATOACANTHOMA, Dose [Carcinogen]: 0.53-0.6 MG ONCE PRIOR TO START OF AGENT TREATMENT, Promoter: NONE USED): 17/50 (34%), 15/50 (30%), 12%, not significant
- tumour outcome (control, treated, inhibition, significance) (Carcinogen: BENZO[A]PYRENE, 50-32-8, Dose [Inhibitor]: 1% IN DIET BEGINNING 45 D PRIOR TO CARCINOGEN (STUDY DURATION: 36 WK), Route [Inhibitor]: ORAL, Species: MOUSE, Strain/Sex: SENCAR/FEMALE, Target Tissue: Type of Lesion: FORESTOMACH: PAPILLOMA, Dose [Carcinogen]: 100 MG/KG IN 0.2 ML CORN OIL 2/WK FOR 4 WK, Promoter: NONE USED): 27/30 (90%), 19/30 (63%), 30%, not calculated
- tumour outcome (control, treated, inhibition, significance) (Carcinogen: BENZO[A]PYRENE, 50-32-8, Dose [Inhibitor]: 1% IN DIET BEGINNING 45 D PRIOR TO CARCINOGEN (STUDY DURATION: 36 WK), Route [Inhibitor]: ORAL, Species: MOUSE, Strain/Sex: SENCAR/FEMALE, Target Tissue: Type of Lesion: LUNG: ADENOMA, Dose [Carcinogen]: 100 MG/KG IN 0.2 ML CORN OIL ONCE, Promoter: NONE USED): 27/30 (90%), 18/30 (60%), 33%, not calculated
- tumour outcome (control, treated, inhibition, significance) (Carcinogen: DIMETHYLBENZ[A]ANTHRACENE, 57-97-6, Dose [Inhibitor]: 1% IN DIET BEGINNING 45 D PRIOR TO CARCINOGEN DOSE AND CONTINUED FOR 10 D POST CARCINOGEN (STUDY DURATION: 16 WK), Route [Inhibitor]: ORAL, Species: MOUSE, Strain/Sex: SENCAR/FEMALE, Target Tissue: Type of Lesion: SKIN: PAPILLOMA, Dose [Carcinogen]: 10 UG IN 0.2 ML ACETONE ONCE, Promoter: TPA, 16561-29-8): 30/30 (100%), 30/30 (100%), 0%, not calculated
- tumour outcome (control, treated, inhibition, significance) (Carcinogen: UV IRRADIATION, Dose [Inhibitor]: 0, 200 UG IN 200 µL ACETONE 3/WK FOR DURATION OF STUDY BEGINNING 2 WK PRIOR TO UV IRRADIATION (STUDY DURATION: 29 WK), Route [Inhibitor]: DERMAL, Species: MOUSE, Strain/Sex: BALB/CANNTACFBR/FEMALE, Target Tissue: Type of Lesion: SKIN: TUMOR, Dose [Carcinogen]: 6.94 J/M2/SEC 30 MIN/D 5 D/WK FOR 17.5 WK, Promoter: NONE USED): 75%, 42%, 44%, p=0.028
